Assay results published in patent US20230348394A1, “COMPOSITIONS AND METHODS FOR TREATING MUSCULAR DYSTROPHIES” (The Regents of the University of California, priority 2020, published 2023).

Experiments:
SSPN gene expression = SSPN gene expression in tibialis anterior after intramuscular injection in mdx mice; format: in vivo; conditions: 4 hours
Description: For the preliminary safety assessment of OT-9, we performed IP injections in 6 month old C57/B16 males. The mice were injected with 100 μl of vehicle (5% DMSO (Sigma), 95% PBS), 100 μl of 30 mg/kg of OT-9 in vehicle, or 100 μl of 50 mg/kg of OT-9 in vehicle (n=1 mouse per treatment). […] For assessment of activity, 20-weeks old male mdx littermates were injected in both tibialis anterior muscles with vehicle (5% DMSO, 95% PBS) or 86 μg of OT-9. Two mice were injected in both TAs with vehicle and three mice were injected in both TAs with 200 of OT-9 (9.4 mM solution containing 86 μg of OT-9). After 4 hours, the muscles were harvested and processed for gene expression analysis. For assessment of activity of OT-9m after local administration, 19-22-weeks old mdx males were injected in both tibialis anterior muscles with vehicle (5% DMSO, 95% PBS) or 3 mg/kg and 10 mg/kg of OT-9m. After 4 hours, the muscles were harvested and processed for gene expression analysis. For assessment of activity of OT-9m after systemic administration, 13-weeks old mdx males were injected subcutaneously with vehicle (4% PEG-200 in hydroxypropyl-b-cyclodextrin) or 20 mg/kg/day of OT-9m. After 13 days of treatment, the muscles were harvested and processed for gene expression analysis.
After the preliminary safety evaluation, we tested the ability of OT-9 to increase SSPN gene expression in vivo. […] Five 20-weeks old male mdx littermates were subjected to intramuscular injections in both tibialis anterior (TA) muscles. Two mice were injected in both TAs with vehicle and […] were injected with 3 mg/kg of OT-9 (molar equivalent of 9.4 mM used in the safety assessment). After 4 hours of treatment, the TAs were harvested and processed for gene expression analysis. […] After determination that OT-9 is capable of increasing SSPN gene expression in vivo, we evaluated one of its derivatives, OT-9m, for its ability to increase SSPN expression in mdx mice. OT-9m was chosen based on its improved activity in vitro compared to OT-9 (compare, Table 1, entries 1 & 14). To assess activity OT-9m in vivo after local administration, eleven 19-22 weeks old male mdx mice were subjected to intramuscular injections in both tibialis anterior (TA) muscles. Four mice were injected in both TAs with vehicle, three mice were injected with 3 mg/kg of OT-9m and four mice were injected with 10 mg/kg of OT-9m. After 4 hours of treatment, the TAs were harvested and processed for gene expression analysis.

H2K mdx myotubes = test: Differentiation of mdx myotubes (fusion index, MYOG gene expression); format: cell-based, murine; conditions: mdx myotubes, 1, 5 and 10 μM
mdx myotubes = test: Membrane stability assay (creatine kinase release after osmotic shock); format: cell-based, murine; conditions: for CK release after osmotic shock: 5 μM
Description: The membrane stability assay was modified from previously described methods. The solutions for osmotic shock were prepared from a base solution containing 5 mM HEPES, 5 mM KCl, 1 mM MgCl2, 5 mM NaCl, 1.2 mM CaCl2), and 1 mM glucose. Sucrose was added to the base solutions to reach osmolarities of 50, 80, 100, 280, and 300 mosmol. The actual osmolarity was determined using a VAPRO vapor pressure osmometer (Wescor Inc.) Myotubes were treated for 48 hours and at day 4 of differentiation were subjected to 20 mins of osmotic shock at 37° C. using 28.5 to 223.5 milliosmole (mosmol) solutions. The supernatant was collected and centrifuged to separate cell debris. Adherent cells were trypsinized and pelleted before lysis with water and 3 freeze-thaw cycles. The Creatine Kinase Assay (Sekisui Diagnostics) was used to measure creatine kinase (CK) levels in both the supernatant and lysate fractions. In a 96-well plate, 4 μl of each sample and 140 μl of reagent was loaded per well in triplicate. The U/L of CK was calculated as follows: (mOD/min)(total volume in mL)(dilution factor)/(6.22M-lcm-1)(light path in cm)(sample volume in mL). The percent CK release was calculated as follows: CKextracellular/(CKextracellular+CKintracellular)*100.
The assay entails subjecting myotubes to osmotic shock, which causes cell swelling and membrane damage, allowing for intracellular CK to be released from the cell into the surrounding medium (FIG. 5a).
To assess the effect of SSPN knockdown on membrane stability in the absence of any compound treatment, we transfected mdx myotubes with 24 and 48 nM of scramble and SSPN siRNA and subjected the cells to osmotic shock with 45 mosmol solutions. […] We treated mdx myotubes with 10 μM of OT-9 in parallel with 24 nM of scramble or SSPN siRNA for 48 hours prior to osmotic shock and discovered that depletion of SSPN increased the CK release from 6.5% to 8% (FIG. 5d).

In the case of CCN(CC)c1ccc2cc(C(=O)Nc3ccc(C(=O)N4CCCCCC4)cc3)c(=O)oc2c1 [OT-9], the “increase in SSPN gene expression relative to the vehicle control-treated group” value (SSPN gene expression; 3 mg/kg intramuscular, tibialis anterior) is reported as 1.7 fold, the “adverse effects after local injection” value (SSPN gene expression; OT-9 3 mg/kg intramuscular, both TA) is reported as “No adverse effects” and the MYOG gene expression (H2K mdx myotubes) is reported as “slight increase”. For the same compound, the fusion index (H2K mdx myotubes) was “slight increase”, the “CK release after osmotic shock” value (mdx myotubes; 48 hours, 28.5 mosmol solution) was “did not reduce CK release” and the “CK release after osmotic shock” value (mdx myotubes; 48 hours, 45, 63 and 223.5 mosmol solutions) was “significantly reduced CK release”. For the same compound, the CK release (mdx myotubes; 10 μM OT-9 with 24 nM SSPN siRNA, 48 hours) was 8% and the CK release (mdx myotubes; 10 μM OT-9 with 24 nM scramble siRNA, 48 hours) was 6.5%.
